{
  "source": "patent US7217532B2",
  "about": "“Methods for detecting DNA damage and screening for cancer therapeutics” (The Wistar Institute of Anatomy and Biology, priority 2000, dated 2007)",
  "molecules": {"B1": {"name": "AA residues 1–34 and 1047–1711: 53Bp1 deletion mutant, deletion of residues 35–1046 and 1712–1972 of SEQ ID NO: 2, HA-tagged (protein)", "chain": "MDPTGSQLDSDFSQQDTPCLIIEDSQPESQVLEDEARSEDPPTTPIRGNLLHFPSSQGEEEKEKLEGDHTIRQSQQPMKPISPVKDPVSPASQKMVIQGPSSPQGEAMVTDVLEDQKEGRSTNKENPSKALIERPSQNNIGIQTMECSLRVPETVSAATQTIKNVCEQGTSTVDQNFGKQDATVQTERGSGEKPVSAPGDDTESLHSQGEEEFDMPQPPHGHVLHRHMRTIREVRTLVTRVITDVYYVDGTEVERKVTEETEEPIVECQECETEVSPSQTGGSSGDLGDISSFSSKASSLHRTSSGTSLSAMHSSGSSGKGAGPLRGKTSGTEPADFALPSSRGGPGKLSPRKGVSQTGTPVCEEDGDAGLGIRQGGKAPVTPRGRGRRGRPPSRTTGTRETAVPGPLGIEDISPNLSPDDKSFSRVVPRVPDSTRRTDVGAGALRRSDSPEIPFQAAAGPSDGLDASSPGNSFVGLRVVAKWSSNGYFYSGKITRDVGAGKYKLLFDDGYECDVLGKDILLCDPIPLDTEVTALSEDEYFSAGVVKGHRKESGELYYSIEKEGQRKWYKRMAVILSLEQGNRLREQYGLGPYEAVTPLTKAADISLDNLVEGKRKRRSNVSSPATPTASSSSSTTPTRKITESPRASMGVLSGKRKLITSEEERSPAKRGRKSATVKPGAVGAGEFVSPCESGDNTGE", "modifications": "HA tag; human 53Bp1"}, "B2": {"name": "AA residues 1–34 and 1047–1972: 53Bp1 deletion mutant, deletion of residues 35–1046 of SEQ ID NO: 2, HA-tagged (protein)", "chain": "MDPTGSQLDSDFSQQDTPCLIIEDSQPESQVLEDEARSEDPPTTPIRGNLLHFPSSQGEEEKEKLEGDHTIRQSQQPMKPISPVKDPVSPASQKMVIQGPSSPQGEAMVTDVLEDQKEGRSTNKENPSKALIERPSQNNIGIQTMECSLRVPETVSAATQTIKNVCEQGTSTVDQNFGKQDATVQTERGSGEKPVSAPGDDTESLHSQGEEEFDMPQPPHGHVLHRHMRTIREVRTLVTRVITDVYYVDGTEVERKVTEETEEPIVECQECETEVSPSQTGGSSGDLGDISSFSSKASSLHRTSSGTSLSAMHSSGSSGKGAGPLRGKTSGTEPADFALPSSRGGPGKLSPRKGVSQTGTPVCEEDGDAGLGIRQGGKAPVTPRGRGRRGRPPSRTTGTRETAVPGPLGIEDISPNLSPDDKSFSRVVPRVPDSTRRTDVGAGALRRSDSPEIPFQAAAGPSDGLDASSPGNSFVGLRVVAKWSSNGYFYSGKITRDVGAGKYKLLFDDGYECDVLGKDILLCDPIPLDTEVTALSEDEYFSAGVVKGHRKESGELYYSIEKEGQRKWYKRMAVILSLEQGNRLREQYGLGPYEAVTPLTKAADISLDNLVEGKRKRRSNVSSPATPTASSSSSTTPTRKITESPRASMGVLSGKRKLITSEEERSPAKRGRKSATVKPGAVGAGEFVSPCESGDNTGEPSALEEQRGPLPLNKTLFLGYAFLLTMATTSDKLASRSKLPDGPTGSSEEEEEFLEIPPFNKQYTESQLRAGAGYILEDFNEAQCNTAYQCLLIADQHCRTRKYFLCLASGIPCVSHVWVHDSCHANQLQNYRNYLLPAGYSLEEQRILDWQPRENPFQNLKVLLVSDQQQNFLELWSEILMTGGAASVKQHHSSAHNKDIALGVFDVVVTDPSCPASVLKCAEALQLPVVSQEWVIQCLIVGERIGFKQHPKYKHDYVSH", "modifications": "HA tag; human 53Bp1"}, "B3": {"name": "AA residues 1–34 and 1220–1711: 53Bp1 deletion mutant, deletion of residues 35–1219 and 1712–1972 of SEQ ID NO: 2, HA-tagged (protein)", "chain": "MDPTGSQLDSDFSQQDTPCLIIEDSQPESQVLEDQGEEEFDMPQPPHGHVLHRHMRTIREVRTLVTRVITDVYYVDGTEVERKVTEETEEPIVECQECETEVSPSQTGGSSGDLGDISSFSSKASSLHRTSSGTSLSAMHSSGSSGKGAGPLRGKTSGTEPADFALPSSRGGPGKLSPRKGVSQTGTPVCEEDGDAGLGIRQGGKAPVTPRGRGRRGRPPSRTTGTRETAVPGPLGIEDISPNLSPDDKSFSRVVPRVPDSTRRTDVGAGALRRSDSPEIPFQAAAGPSDGLDASSPGNSFVGLRVVAKWSSNGYFYSGKITRDVGAGKYKLLFDDGYECDVLGKDILLCDPIPLDTEVTALSEDEYFSAGVVKGHRKESGELYYSIEKEGQRKWYKRMAVILSLEQGNRLREQYGLGPYEAVTPLTKAADISLDNLVEGKRKRRSNVSSPATPTASSSSSTTPTRKITESPRASMGVLSGKRKLITSEEERSPAKRGRKSATVKPGAVGAGEFVSPCESGDNTGE", "modifications": "HA tag; human 53Bp1"}, "B4": {"name": "AA residues 1–34 and 1411–1711: 53Bp1 deletion mutant, deletion of residues 35–1410 and 1712–1972 of SEQ ID NO: 2, HA-tagged (protein)", "chain": "MDPTGSQLDSDFSQQDTPCLIIEDSQPESQVLEDTRETAVPGPLGIEDISPNLSPDDKSFSRVVPRVPDSTRRTDVGAGALRRSDSPEIPFQAAAGPSDGLDASSPGNSFVGLRVVAKWSSNGYFYSGKITRDVGAGKYKLLFDDGYECDVLGKDILLCDPIPLDTEVTALSEDEYFSAGVVKGHRKESGELYYSIEKEGQRKWYKRMAVILSLEQGNRLREQYGLGPYEAVTPLTKAADISLDNLVEGKRKRRSNVSSPATPTASSSSSTTPTRKITESPRASMGVLSGKRKLITSEEERSPAKRGRKSATVKPGAVGAGEFVSPCESGDNTGE", "modifications": "HA tag; human 53Bp1"}, "B5": {"name": "AA residues 1661–1972: 53Bp1 deletion mutant, deletion of residues 1–1660 of SEQ ID NO: 2, HA-tagged (protein)", "chain": "MGVLSGKRKLITSEEERSPAKRGRKSATVKPGAVGAGEFVSPCESGDNTGEPSALEEQRGPLPLNKTLFLGYAFLLTMATTSDKLASRSKLPDGPTGSSEEEEEFLEIPPFNKQYTESQLRAGAGYILEDFNEAQCNTAYQCLLIADQHCRTRKYFLCLASGIPCVSHVWVHDSCHANQLQNYRNYLLPAGYSLEEQRILDWQPRENPFQNLKVLLVSDQQQNFLELWSEILMTGGAASVKQHHSSAHNKDIALGVFDVVVTDPSCPASVLKCAEALQLPVVSQEWVIQCLIVGERIGFKQHPKYKHDYVSH", "modifications": "HA tag; human 53Bp1"}},
  "data": [
    {"test_system": "53Bp1 foci in U2OS cells", "experiment": "Effect of wortmannin or caffeine on ionizing radiation-induced 53Bp1 foci, by immunofluorescent microscopy", "assay_type": "cell-based, human", "settings": "20 μM wortmannin, 1 Gy ionizing radiation, at 30 minutes", "units": {"reduction of percentage of cells containing 53Bp1 ionizing radiation-induced foci": "%"}, "values": [
      {"molecule": "COC[C@H]1OC(=O)c2coc3c2[C@@]1(C)C1=C(C3=O)[C@@H]2CCC(=O)[C@@]2(C)C[C@H]1OC(C)=O", "note": "[wortmannin]", "reduction of percentage of cells containing 53Bp1 ionizing radiation-induced foci": "~50"}
    ]},
    {"test_system": "ionizing radiation-induced foci in U2OS cells", "experiment": "Localization of HA-tagged 53Bp1 deletion mutants to ionizing radiation-induced foci in U2OS cells", "assay_type": "cell-based, human", "settings": "HA-tagged proteins expressed in U2OS cells, immunofluorescence after ionizing radiation", "description": "Stably transfected U2OS cell lines were created by transfecting the plasmid pSV2 [Chehab, N. H. et al, 1999 Proc. Natl. Acad. Sci., USA, 96:13777–13782] containing various N-terminal hemaglutinin (HA) tagged versions of 53Bp1. HA53Bp1 is the full-length protein bearing the HA tag on its N terminus. HA53Bp1ΔBRCT is similar to HA53Bp1 with amino acids 1713 to 1973 (the BRCT domains) of SEQ ID NO: 2 deleted therefrom. HA53Bp1C312 contains only the C-terminal 312 amino acids of 53Bp1, which include the nuclear localization signal (i.e., amino acids 1662 to 1701 of SEQ ID NO: 2 and the BRCT domain (amino acids 1702–1973 of SEQ ID NO: 2). The U2OS cells on cover slips were transiently transfected with the selected plasmid using the calcium phosphate method. Positively transfected colonies were pooled after selecting with neomycin. Expression was allowed to occur for 30 hours and then cells were treated, fixed, stained, and visualized as described below.\nThe following experiments were performed to identify the minimal focus-targeting (FT) domain of the relatively large (1972 amino acids) 53Bp1 protein [SEQ ID NO: 2]. The FT domain is the portion of the protein sequence required for targeting to ionizing radiation-induced foci. The FT domain participates in the mechanism of 53Bp1 relocalization. In addition, fragments of 53Bp1 that retain the ability to form ionizing radiation-induced foci act as dominant negative mutants by competing with endogenous 53Bp1 for localization to the IR-induced 53Bp1-binding sites.\nA series of 53Bp1 deletion mutants was generated and expressed as HA-tagged proteins in U2OS cells. These cells were examined by immuno-fluorescence for their intracellular localization in response to ionizing radiation, as described in Examples 1 and 2. Nuclear localization is considered to be a prerequisite for targeting of 53Bp1 to ionizing radiation-induced foci. Therefore, all the mutants were constructed so that they retained the NLS of 53Bp1.", "values": [
      {"molecule": "AA residues 1–1053 and 1220–1972: 53Bp1 deletion mutant, deletion of residues 1054–1219 of SEQ ID NO: 2, HA-tagged", "Ionizing Radiation-Induced Foci Localization": "Yes"},
      {"molecule": "AA residues 1–1053 and 1411–1972: 53Bp1 deletion mutant, deletion of residues 1054–1410 of SEQ ID NO: 2, HA-tagged", "Ionizing Radiation-Induced Foci Localization": "No"},
      {"molecule": "AA residues 1–1711: 53Bp1 deletion mutant, deletion of AA residues 1712–1972 of SEQ ID NO: 2, HA-tagged", "Ionizing Radiation-Induced Foci Localization": "Yes"},
      {"molecule": "full-length: full-length 53Bp1, AA residues 1–1972 of SEQ ID NO: 2, HA-tagged", "Ionizing Radiation-Induced Foci Localization": "Yes"},
      {"molecule": "B1", "Ionizing Radiation-Induced Foci Localization": "Yes"},
      {"molecule": "B2", "Ionizing Radiation-Induced Foci Localization": "Yes"},
      {"molecule": "B3", "Ionizing Radiation-Induced Foci Localization": "Yes"},
      {"molecule": "B4", "Ionizing Radiation-Induced Foci Localization": "No"},
      {"molecule": "B5", "Ionizing Radiation-Induced Foci Localization": "No"}
    ]},
    {"test_system": "53Bp1 foci in U2OS cells", "experiment": "53Bp1 foci formation in cells treated with DNA damaging agents, by immunofluorescence", "settings": "0.2 mM etoposide; 1 mM hydroxyurea for 1 to 25 hours", "values": [
      {"molecule": "NC(=O)NO", "note": "[HU, hydroxyurea]", "53Bp1-containing foci formation in treated cells": "do not form"}
    ]}
  ]
}
